Measured values as given in patent publication US20220264878A1, “HERBICIDAL COMPOSITION CONTAINING R-TYPE PYRIDYLOXY CARBOXYLIC ACID DERIVATIVE AND USE THEREOF” (Qingdao Kingagroot Chemical Compound Co., Ltd., priority 2019, published 2022).

How the values were obtained:
Assay type in all cases: in vivo
[1] = tested on: Malachium aquaticum; test: Post-emergence foliage spray, pot culture, fresh weight inhibition (Tables 1-48, 51-98, 101-148; 24 days)
Summary of the method: (§1)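 Pot-grown weeds were thinned to 15 per pot (45 per treatment) and sprayed on foliage at the 5–6-leaf stage for grasses or the 6–7-leaf stage for broadleaves. Agents were dissolved in acetone with 0.1% Tween-80 and applied at 450 kg/ha spray volume and 0.3 MPa. Plants were then kept in a greenhouse. Above-ground fresh weight of survivors, with dead plants counted as zero, gave inhibition versus a solvent/emulsifier blank.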

[2] = tested on: Chenopodium album; test: as above
Summary of the method: as §1

[3] = tested on: Echinochloa caudate; test: as above
Summary of the method: as §1

[4] = tested on: Echinochloa crusgalli var. zelayensis; test: as above
Summary of the method: as §1

[5] = tested on: Galium aparine L.; test: as above; settings: fresh weight inhibition after 24 days
Summary of the method: as §1

[6] = tested on: Echinochloa crusgalli var. zelayensis; test: Soil sealing treatment, pot culture, fresh weight inhibition (Tables 49, 50)
Procedure: A method for investigating absolute number was employed, wherein whole seedlings of survival weeds were cut off with a blade along the soil surface, and the fresh weight of the weeds was weighed with an analytical balance. For dead weeds, the fresh weight thereof was zero.
Theoretical fresh weight inhibition rate of a combination of two active ingredients in each group was calculated by the Gowing method (E0=X+Y−X*Y/100), and then compared with an actually measured inhibition rate (E), thereby effect of the combination (hereafter referred to as combined effect) on weeds was evaluated: the value of E-E0, which was greater than 10%, corresponded to a synergistic effect, the value of E-E0, which was less than −10%, corresponded to an antagonistic effect, and the value of E-E0, which was from −10% to 10%, corresponded to an additional effect. […] Wherein, in the formula, X represented the fresh weight inhibition rate of the active ingredient A in a dosage of P, and Y represented the fresh weight inhibition rate of the active ingredient B in a dosage of Q.
Echinochloa crusgalli var zelayensis were collected in Huai'an of Jiangsu Province; Echinochloa caudate were collected in Pingluo of Ningxia Province; Echinochloa oryzoides were collected in Qiqiha'er of Heilongjiang Province.
The culture was carried out in a controllable sunlight greenhouse at 20 to 30° C., in natural light, and relative humidity of 57% to 72%. […] The test soil was placed quantitatively to ¾ of the pots and then watered from the bottom of the pots to completely wet the soil to saturation. The pretreated test weed seeds were uniformly sowed on the surface, then covered with 0.5-2 cm soil according to the seed size, and ready-for use 24 hours after sowing.
The technical materials were all dissolved in acetone, and diluted with an aqueous solution containing 0.1% emulsifier T-80. The dilution is performed as required.
A ratio of A to the active ingredient B and amounts thereof in each group depends on the characteristics and toxicity of the two agents, as well as the main application purpose of a corresponding formulation. Based on the pre-tests in this study, the dosage of A and the active ingredient B applied alone and in combination were shown in the tables. Water containing the solvent and emulsifier same with the above groups but free of the agents was used as a blank control.
3 pots with 30 weed seeds per pot were treated in one treatment with 4 replications per treatment.
The pots which were sowed and mulched were evenly placed on a platform with an area of 0.5 m^2, and a solution of agents was sprayed on soil surface thereof by the 3WP-2000-type walking spray tower at a dosage of […] and at a spray pressure of 0.3 MPa. After all the solution was sprayed, the valve was closed. After 30 seconds, the door of the spray tower was opened, and the nutritional bowl was taken out. Then the valve was opened, and the spray tube was cleaned by spraying 50 ml of water.
This section was same as the section 4) in the post-emergence treatment by performing foliage spray, and was not repeated herein.

C[C@@H](Oc1nc(F)c(Cl)c(N)c1Cl)C(=O)O [Compound A1]
Control effect (%) of A applied alone in corresponding dose ([1]; A1 7.5 g a.i./ha): 35.8% | Control effect (%) of A applied alone in corresponding dose ([1]; A1 15 g a.i./ha): 69.6% | Control effect (%) of A applied alone in corresponding dose ([2]; A1 7.5 g a.i./ha): 23.1% | Control effect (%) of A applied alone in corresponding dose ([2]; A1 15 g a.i./ha): 55.6% | Control effect (%) of A applied alone in corresponding dose ([2]; Table 91, 75 g a.i./ha): 23.1% | Control effect (%) of A applied alone in corresponding dose ([2]; Table 91, 150 g a.i./ha): 55.6% | Control effect (%) of A applied alone in corresponding dose ([2]; Table 92, 75 g a.i./ha): 23.1% | Control effect (%) of A applied alone in corresponding dose ([2]; Table 92, 150 g a.i./ha): 55.6% | Control effect (%) of A applied alone in corresponding dose ([2]; Table 93, 75 g a.i./ha): 23.1% | Control effect (%) of A applied alone in corresponding dose ([2]; Table 93, 150 g a.i./ha): 55.6% | Control effect (%) of A applied alone in corresponding dose ([2]; Table 94, 75 g a.i./ha): 23.1% | Control effect (%) of A applied alone in corresponding dose ([2]; Table 94, 150 g a.i./ha): 55.6% | Control effect (%) of A applied alone in corresponding dose ([2]; Table 95, 75 g a.i./ha): 23.1% | Control effect (%) of A applied alone in corresponding dose ([2]; Table 95, 150 g a.i./ha): 55.6% | Control effect (%) of A applied alone in corresponding dose ([2]; Table 96, 75 g a.i./ha): 23.1% | Control effect (%) of A applied alone in corresponding dose ([2]; Table 96, 150 g a.i./ha): 55.6% | Control effect (%) of A applied alone in corresponding dose ([3]; A1 75 g a.i./ha): 55.2% | Control effect (%) of A applied alone in corresponding dose ([3]; A1 150 g a.i./ha): 76.3% | Control effect (%) of A applied alone in corresponding dose ([3]; Table 80, 7.5 g a.i./ha): 55.2% | Control effect (%) of A applied alone in corresponding dose ([3]; Table 80, 15 g a.i./ha): 76.3% | Control effect (%) of A applied alone in corresponding dose ([3]; Table 81, 75 g a.i./ha): 55.2% | Control effect (%) of A applied alone in corresponding dose ([3]; Table 81, 150 g a.i./ha): 76.3% | Control effect (%) of A applied alone in corresponding dose ([3]; Table 85, 75 g a.i./ha): 55.2% | Control effect (%) of A applied alone in corresponding dose ([3]; Table 85, 150 g a.i./ha): 76.3% | Control effect (%) of A applied alone in corresponding dose ([3]; Table 86, 75 g a.i./ha): 55.2% | Control effect (%) of A applied alone in corresponding dose ([3]; Table 86, 150 g a.i./ha): 76.3% | Control effect (%) of A applied alone in corresponding dose ([3]; Table 89, 75 g a.i./ha): 55.2% | Control effect (%) of A applied alone in corresponding dose ([3]; Table 89, 150 g a.i./ha): 76.3% | Control effect (%) of A applied alone in corresponding dose ([3]; Table 97, 75 g a.i./ha): 55.2% | Control effect (%) of A applied alone in corresponding dose ([3]; Table 97, 150 g a.i./ha): 76.3%

C[C@@H](Oc1nc(F)c(Cl)c(N)c1Cl)C(=O)OCC1CCCO1 (stereo partly drawn) [Compound A2]
Control effect (%) of A applied alone in corresponding dose ([4]; A2 75 g a.i./ha): 54.2% | Control effect (%) of A applied alone in corresponding dose ([4]; A2 150 g a.i./ha): 75.3% | Control effect (%) of A applied alone in corresponding dose ([4]; A 75 g a.i./ha, foliage spray, fresh weight inhibition after 24 days): 54.2% | Control effect (%) of A applied alone in corresponding dose ([4]; A 150 g a.i./ha, foliage spray, fresh weight inhibition after 24 days): 75.3% | Control effect (%) of A applied alone in corresponding dose ([5]; A 7.5 g a.i/ha): 34.8% | Control effect (%) of A applied alone in corresponding dose ([5]; A 15 g a.i/ha): 68.5% | Control effect (%) of A applied alone in corresponding dose ([5]; A 150 g a.i/ha (so in the source)): 68.5% | Control effect (%) of A applied alone in corresponding dose ([6]; A2 75 g a.i./ha): 21.4% | Control effect (%) of A applied alone in corresponding dose ([6]; A2 150 g a.i./ha): 45.2%
